The values below come from patent US20220144809A1, “COMPOUNDS AND METHODS FOR THE TARGETED DEGRADATION OF ANDROGEN RECEPTOR AND ASSOCIATED METHODS OF USE” (Arvinas Operations, Inc., priority 2020, published 2022).

Bounds are passed on as bounds.

This assay has as its system Androgen Receptor (AR). Briefly: Androgen Receptor ELISA assay (AR degradation in LNCaP and/or VCaP cells). Particulars: degradation of AR, 5 hours incubation, R1881 in media. It counts as cell-based. Here is the method:
Assay for Testing AR Degradation Driven by Compounds of the Present Disclosure.
Androgen Receptor ELISA Assay. Compounds were evaluated in the following assay in LNCaP and/or VCaP cells utilizing similar protocols. The protocols used with VCaP cells are described below. The androgen receptor ELISA assay was performed using PathScan AR Sandwich ELISA (Cell Signaling Catalog#12850) according to the following assay steps.
VCaP cells were seeded at 40,000 cells/well at a volume of 100 μL/well in VCaP assay medium [Phenol red free RPMI (Gibco Cat#11835-030); 5% Charcoal Stripped (Dextran treated) FBS (Omega Scientific, Cat#FB-04); 1% penstrep (Life Technologies, Gibco Cat#: 10378-016)] in Corning 3904 plates. The cells were grown for a minimum of 3 days.
First, cells were dosed with compounds diluted in […]—in a polypropylene plate avoiding the use of outer columns according to the following protocol: (1)(i) 1000× stock plate in DMSO was made; (ii) 20 mM stock diluted 1/6.7 with DMSO (5 μL+28.3 μL DMSO)=3 mM into row H; (iii) serial dilutions in ½ log doses (10 μL of bifunctional compound+20 μL DMSO) was performed from row H towards row B with row A being reserved for DMSO; (iv) 7 doses total (final concentration in this 1000× plate will be 3 mM, 1 mM, 333 μM, 111 μM, etc). (2)(i) A 10× stock plate in media was made; (ii) 2.5 μL of the 1000× stock was trasnferred to a new 10× stock plate (use 12 channel pipet, start at A (DMSO control) work thru H. When 247.5 μL of media was added to this plate, it served as a 10× stock; (iii) made media+1 nM R1881 for making 10× stock plate; (iv) added 247.5 μL of media with 1 nM R1881 to each well of the 10× stock plate, mix.
Then 22 μL of 10× stock was added to cells and incubated for 5 hours. 1× Cell Signaling Cell lysis buffer was made (Catalogue #9803; comes with the kit) to have […], and was kept on ice. Media was aspirated, and 100 μL 1× cell lysis buffer/well was added. The cells were placed on a shaker located in a cold room for 10 minutes and shaken at speed 7. The lysate mixture was mix and 20 μL transferred to 100 μl of Diluent in ELISA plate (0.15 μg/ml-0.075 μg/ml). The lysate-diluent mixture was store at 4° C. overnight on a shaker located in a cold room at speed 5 (gentle swirl).
The lysate-diluent mixture was shaken for 30 minutes at 37° C. The mouse AR antibody, anti-mouse antibody, TMB, and STOP solution were allowed to come to room temperature. The 1×ELISA buffer included in kit was made and loaded in reservoir. Media from the plate was discarded, the ELISA plate was tapped hard on paper towel, and washed 4×200 μl ELISA wash buffer using a plate washer for the first three washes and an eight channel aspirator for the fourth wash to more thoroughly aspirate the solution.
Next, 100 μL/well of mouse AR detection Ab was added; the plate was covered and shaken at 37° C. for 1 hour; media was discarded from the plates, the plates tapped on a paper towel and washed four times with 200 μL ELISA wash buffer with a plate washer for the first three washes and an eight channel aspirator for the fourth wash; 100 μL/well of anti-mouse—HRP conjugated Ab (comes with the kit) was added; the plates wascover and shaken at 37° C. for 30 minutes; the TMB reagent was allowed to come to room temperature; the media from the plate was discarded, the plates tapped on paper towel, and washed four times with 200 μL ELISA wash buffer with a plate washer for the first three washes and an eight channel aspirator for the fourth wash; plates were tapped on paper towl; 100 μL TMB was added to each well and the plate shaken for 2 minutes—while watching color. STOP solution (100 μL) was added when light blue color developed. The plates were shake and read at 450 nm.
Data was analyzed and plotted using GraphPad Prism software. Exemplary compounds of Table 1 were assayed and the data shown below in Table 2. […]
A general note: An ELISA detects its analyte on a solid surface through an enzyme-linked reagent.
Broadly, the DC50 is the midpoint of the concentration-degradation curve. A higher DC50 goes with a less potent degrader. Take `COc1cc(N2C(=O)C3(CCC3)N(c3ccc(N4CCC(CN5CCN(c6ccc7c(c6)C(=O)N(C6CCC(=O)NC6=O)C7=O)CC5)CC4)cc3)C2=S)ccc1C#N` (centres unmarked) [Compound 7, 4-(5-(4-(4-((4-(2-(2,6-dioxopiperidin-3-yl)-1,3-dioxoisoindolin-5-yl)piperazin-1-yl)methyl)piperidin-1-yl)phenyl)-8-oxo-6-thioxo-5,7-diazaspiro[3.4]octan-7-yl)-2-methoxybenzonitrile]: the DC50 lay in the range of 1 to 10 nM and the “Dmax Code” value is on record as “B (50≤B<70)”.

As for `CC(C)N(CC1CCN(c2ccc(N3C(=S)N(c4cnc(C#N)c(C(F)(F)F)c4)C(=O)C34CCC4)cn2)CC1)[C@H]1C[C@H](Oc2ccc3c(c2)C(=O)N(C2CCC(=O)NC2=O)C3=O)C1` (some centres unmarked) [Compound 13, 5-(5-(6-(4-((((1r,3r)-3-((2-(2,6-dioxopiperidin-3-yl)-1,3-dioxoisoindolin-5-yl)oxy)cyclobutyl)(isopropyl)amino)methyl)piperidin-1-yl)pyridin-3-yl)-8-oxo-6-thioxo-5,7-diazaspiro[3.4]octan-7-yl)-3-(trifluoromethyl)picolinonitrile], the DC50 lay in the range of 1 to 10 nM and the “Dmax Code” value was “C (C<50)”.

Take `Cc1c(C#N)c(-c2ccc(C#N)cc2)c(C)n1Cc1ccc(OCCCN2CCC(CN3CCN(c4ccc5c(c4)C(=O)N(C4CCC(=O)NC4=O)C5=O)CC3)CC2)cc1` (centres unmarked) [Compound 19, 4-(4-cyanophenyl)-1-(4-(3-(4-((4-(2-(2,6-dioxopiperidin-3-yl)-1,3-dioxoisoindolin-5-yl)piperazin-1-yl)methyl)piperidin-1-yl)propoxy)benzyl)-2,5-dimethyl-1H-pyrrole-3-carbonitrile]: the DC50 is no less than 100 nM and the “Dmax Code” value is reported as “C (C<50)”.

Consider `Cc1c(C#N)c(-c2ccc(C#N)cc2)c(C)n1Cc1ccc(OCCN2CCC(CN3CCN(c4ccc5c(c4)C(=O)N(C4CCC(=O)NC4=O)C5=O)CC3)CC2)cc1` (centres unmarked) [Compound 20, 4-(4-cyanophenyl)-1-(4-(2-(4-((4-(2-(2,6-dioxopiperidin-3-yl)-1,3-dioxoisoindolin-5-yl)piperazin-1-yl)methyl)piperidin-1-yl)ethoxy)benzyl)-2,5-dimethyl-1H-pyrrole-3-carbonitrile], for which the DC50 was no less than 100 nM and the “Dmax Code” value was “C (C<50)”.

As to `N#Cc1ncc(N2C(=O)C3(CCC3)N(c3ccc(OC4CCN(CC5CCN(c6ccc7c(c6)C(=O)N(C6CCC(=O)NC6=O)C7=O)CC5)CC4)c(F)c3)C2=S)cc1Cl` (centres unmarked) [Compound 10, 3-chloro-5-(5-(4-((1-((1-(2-(2,6-dioxopiperidin-3-yl)-1,3-dioxoisoindolin-5-yl)piperidin-4-yl)methyl)piperidin-4-yl)oxy)-3-fluorophenyl)-8-oxo-6-thioxo-5,7-diazaspiro[3.4]octan-7-yl)picolinonitrile], the DC50 is 1 to 10 nM and the “Dmax Code” value is “A (A≥70)”.

As to `N#Cc1ncc(N2C(=O)C3(CCC3)N(c3ccc(C4CCN(CC5CCN(c6ccc7c(c6)C(=O)N(C6CCC(=O)NC6=O)C7)CC5)CC4)cc3)C2=S)cc1Cl` (centres unmarked) [Compound 11], the DC50 lay in the range of 1 to 10 nM and the “Dmax Code” value is listed as “C (C<50)”.

`CC1(C)C(=O)N(c2ccc(C#N)c(C(F)(F)F)c2)C(=S)N1Cc1ccc(OCCN2CCC(CN3CCN(c4ccc5c(c4)C(=O)N(C4CCC(=O)NC4=O)C5=O)CC3)CC2)nc1` (centres unmarked) [Compound 14, 4-(3-((6-(2-(4-((4-(2-(2,6-dioxopiperidin-3-yl)-1,3-dioxoisoindolin-5-yl)piperazin-1-yl)methyl)piperidin-1-yl)ethoxy)pyridin-3-yl)methyl)-4,4-dimethyl-5-oxo-2-thioxoimidazolidin-1-yl)-2-(trifluoromethyl)benzonitrile]: the DC50 is 1 to 10 nM and the “Dmax Code” value was “B (50≤B<70)”.

For the molecule `Cc1c(C#N)c(-c2ccc(C#N)cc2)c(C)n1Cc1ccc(OCCOCCN2CCC(CN3CCN(c4ccc5c(c4)C(=O)N(C4CCC(=O)NC4=O)C5=O)CC3)CC2)cc1` (centres unmarked) [Compound 22, 4-(4-cyanophenyl)-1-(4-(2-(2-(4-((4-(2-(2,6-dioxopiperidin-3-yl)-1,3-dioxoisoindolin-5-yl)piperazin-1-yl)methyl)piperidin-1-yl)ethoxy)ethoxy)benzyl)-2,5-dimethyl-1H-pyrrole-3-carbonitrile], the DC50 is no less than 100 nM and the “Dmax Code” value is listed as “C (C<50)”.

On to `N#Cc1ccc(N2C(=O)C3(CCC3)N(c3ccc(N4CCC(CN5CCN(c6ccc7c(c6)C(=O)N(C6CCC(=O)NC6=O)C7=O)CC5)CC4)cc3)C2=S)cc1Cl` (centres unmarked) [Compound 9, 2-chloro-4-(5-(4-(4-((4-(2-(2,6-dioxopiperidin-3-yl)-1,3-dioxoisoindolin-5-yl)piperazin-1-yl)methyl)piperidin-1-yl)phenyl)-8-oxo-6-thioxo-5,7-diazaspiro[3.4]octan-7-yl)benzonitrile], for which the DC50 was in the range of 1 to 10 nM and the “Dmax Code” value is recorded as “A (A≥70)”.

For `CC1(C)C(=O)N(c2ccc(C#N)c(C(F)(F)F)c2)C(=S)N1Cc1ccc(N2CCC(CN3CCN(c4ccc5c(c4)C(=O)N(C4CCC(=O)NC4=O)C5=O)CC3)CC2)nc1` (centres unmarked) [Compound 3, 4-(3-((6-(4-((4-(2-(2,6-dioxopiperidin-3-yl)-1,3-dioxoisoindolin-5-yl)piperazin-1-yl)methyl)piperidin-1-yl)pyridin-3-yl)methyl)-4,4-dimethyl-5-oxo-2-thioxoimidazolidin-1-yl)-2-(trifluoromethyl)benzonitrile], the DC50 was less than 1 nM and the “Dmax Code” value is “A (A≥70)”.

Take `CC(C)N(CC1CCN(CCCCn2c(=O)n(-c3ccc(C#N)c(C(F)(F)F)c3)c3ccccc32)CC1)[C@H]1C[C@H](Oc2ccc3c(c2)C(=O)N(C2CCC(=O)NC2=O)C3=O)C1` (some centres unmarked) [Compound 24, 4-(3-(4-(4-((((1r,3r)-3-((2-(2,6-dioxopiperidin-3-yl)-1,3-dioxoisoindolin-5-yl)oxy)cyclobutyl)(isopropyl)amino)methyl)piperidin-1-yl)butyl)-2-oxo-2,3-dihydro-1H-benzo[d]imidazol-1-yl)-2-(trifluoromethyl)benzonitrile]: the DC50 is no less than 100 nM and the “Dmax Code” value is listed as “C (C<50)”.

In the case of `N#Cc1ncc(N2C(=O)C3(CCC3)N(c3ccc(CCCCCN4CCN(c5ccc6c(c5)C(=O)N(C5CCC(=O)NC5=O)C6=O)CC4)cc3)C2=S)cc1Cl` (centres unmarked) [Compound 1, 3-chloro-5-(5-(4-(5-(4-(2-(2,6-dioxopiperidin-3-yl)-1,3-dioxoisoindolin-5-yl)piperazin-1-yl)pentyl)phenyl)-8-oxo-6-thioxo-5,7-diazaspiro[3.4]octan-7-yl)picolinonitrile], the DC50 is less than 1 nM and the “Dmax Code” value is given as “A (A≥70)”.

Consider `CC(C)N(CC1CCN(CCCn2c(=O)n(-c3ccc(C#N)c(C(F)(F)F)c3)c3ccccc32)CC1)[C@H]1C[C@H](Oc2ccc3c(c2)C(=O)N(C2CCC(=O)NC2=O)C3=O)C1` (some centres unmarked) [Compound 23, 4-(3-(3-(4-((((1r,3r)-3-((2-(2,6-dioxopiperidin-3-yl)-1,3-dioxoisoindolin-5-yl)oxy)cyclobutyl)(isopropyl)amino)methyl)piperidin-1-yl)propyl)-2-oxo-2,3-dihydro-1H-benzo[d]imidazol-1-yl)-2-(trifluoromethyl)benzonitrile], for which the DC50 is no less than 100 nM and the “Dmax Code” value was “C (C<50)”.
